Source: the NIST ThermoML archive (doi:10.1021/je200707b)
± gives the expanded uncertainty stated by the source.

Columns and labels:
[1] = xn = mol fraction of the nth substance listed; settings: 101.3 kPa, Liquid; for viscosity: Falling or rolling sphere viscometry; for mass density: Vibrating tube method
[2] = refractive index (Na D-line) (dimensionless); xn = mol fraction of the nth substance listed; settings: 298.15 K, 101.3 kPa, Liquid, Standard Abbe refractometry

CC(=O)O.CCCCN [butylammonium acetate] + CCCO
[1]
Settings | mass density, 293.15 K [kg/m3] | mass density, 298.15 K [kg/m3] | mass density, 303.15 K [kg/m3] | mass density, 308.15 K [kg/m3] | mass density, 313.15 K [kg/m3] | viscosity, 293.15 K [mPa·s] | viscosity, 298.15 K [mPa·s] | viscosity, 303.15 K [mPa·s] | viscosity, 308.15 K [mPa·s] | viscosity, 313.15 K [mPa·s]
x1 = 0.0315 | 814.1 ± 0.38 | 810.13 ± 0.38 | 806.12 ± 0.38 | 802.09 ± 0.38 | 798.01 ± 0.38 | 2.862 ± 0.079 | 2.496 ± 0.069 | 2.202 ± 0.06 | 1.955 ± 0.054 | 1.672 ± 0.046
x1 = 0.0601 | 822.82 ± 0.38 | 818.91 ± 0.38 | 814.95 ± 0.38 | 810.95 ± 0.38 | 806.91 ± 0.38 | 3.515 ± 0.097 | 3.158 ± 0.087 | 2.773 ± 0.076 | 2.447 ± 0.067 | 2.167 ± 0.06
x1 = 0.0977 | 833.38 ± 0.39 | 829.52 ± 0.38 | 825.63 ± 0.38 | 821.7 ± 0.38 | 817.72 ± 0.38 | 4.733 ± 0.13 | 4.116 ± 0.11 | 3.595 ± 0.099 | 3.157 ± 0.087 | 2.828 ± 0.078
x1 = 0.198 | 857.48 ± 0.39 | 853.76 ± 0.39 | 850 ± 0.39 | 846.22 ± 0.39 | 842.42 ± 0.39 | 8.602 ± 0.24 | 7.371 ± 0.2 | 6.367 ± 0.17 | 5.493 ± 0.15 | 4.77 ± 0.13
x1 = 0.3002 | 877.71 ± 0.4 | 874.1 ± 0.4 | 870.46 ± 0.39 | 866.8 ± 0.39 | 863.11 ± 0.39 | 17.5 ± 0.48 | 14.77 ± 0.4 | 12.51 ± 0.34 | 10.66 ± 0.29 | 9.154 ± 0.25
x1 = 0.4021 | 894.7 ± 0.4 | 891.19 ± 0.4 | 887.65 ± 0.4 | 884.1 ± 0.4 | 880.52 ± 0.4 | 31.54 ± 0.86 | 26.08 ± 0.72 | 22.23 ± 0.61 | 18.48 ± 0.51 | 15.72 ± 0.43
x1 = 0.497 | 908.39 ± 0.4 | 904.94 ± 0.4 | 901.48 ± 0.4 | 898.01 ± 0.4 | 894.53 ± 0.4 | 47.48 ± 1.3 | 38.69 ± 1.1 | 31.74 ± 0.87 | 26.4 ± 0.72 | 22.13 ± 0.61
x1 = 0.6487 | 927.09 ± 0.41 | 923.74 ± 0.41 | 920.37 ± 0.41 | 917 ± 0.41 | 913.6 ± 0.41 | 108.49 ± 3.9 | 87.22 ± 2.8 | 70.42 ± 2 | 56.62 ± 1.5 | 46.76 ± 1.3
x1 = 0.799 | 942.52 ± 0.42 | 939.27 ± 0.41 | 936.01 ± 0.41 | 932.73 ± 0.41 | 929.43 ± 0.41 | 244.69 ± 14 | 186.83 ± 9 | 148.78 ± 6.4 | 116.88 ± 4.3 | 93.14 ± 3
x1 = 0.8981 | 951.47 ± 0.42 | 948.25 ± 0.42 | 945.03 ± 0.42 | 941.83 ± 0.42 | 938.61 ± 0.41 | 445.2 ± 33 | 326.53 ± 21 | 244.83 ± 14 | 186.41 ± 9 | 144.84 ± 6.1

[2]
Settings | refractive index
x1 = 0.0315 | 1.3875 ± 0.0011
x1 = 0.0601 | 1.3912 ± 0.0011
x1 = 0.0977 | 1.3953 ± 0.0011
x1 = 0.198 | 1.4045 ± 0.0011
x1 = 0.3002 | 1.4122 ± 0.0011
x1 = 0.4021 | 1.4185 ± 0.0011
x1 = 0.497 | 1.4236 ± 0.0011
x1 = 0.6487 | 1.4305 ± 0.0011
x1 = 0.799 | 1.4362 ± 0.0011
x1 = 0.8981 | 1.4395 ± 0.0011
